# Key:
# C2C12 myotubes [1] = test: Myotube diameter in doxorubicin-induced cachexia cell model (Experimental Example 8); assay type: cell-based, mouse; conditions: doxorubicin 500 nM 48 h with or without oxiracetam 0.01, 0.1, 1, 10 and 30 μM; relative to control
# Description: A mouse-derived C2C12 cell line was provided from the American Type Culture Collection (ATCC, CRL-1772; Manassas, VA, USA) and cultured at 37° C. in 5% CO2. In the proliferation phase of the cells before differentiation, high concentration glucose Dulbecco's modified Eagle's medium (DMEM) containing 1% penicillin/streptomycin and 10% fetal bovine serum (FBS) medium were used, and in the differentiation induction, the FBS medium was replaced with a 2% horse serum (HS)-containing medium. The C2C12 myoblasts were seeded into a 96 well culture plate and a 6 well culture plate at 2×10^5/well and 5×10^3/well, respectively, and cultured at 37° C. in a CO2 incubator. […]
# Two days after anticancer agent and oxiracetam treatment, the anticancer agent-treated group (Doxorubicin), the oxiracetam-treated groups (Oxiracetam 0.01 μM, 0.1 μM, 1 μM, 10 μM and 30 μM), and the control (control) were photographed using an optical microscope at a room temperature, and the diameter (Diameter, %) of a myotube in each group was measured and compared.
# (§1) Statistical processing was performed using GraphPad Prism (GraphPad Software Inc., San Diego, CA, USA). The results of each repeated experiment were expressed as mean±standard error of mean, and analyzed using the analysis of variance (Tukey's test), and statistical significance was acknowledged when the P-value was 0.05 or less.
# [2] = test system: animal model in which muscular atrophy is induced by dexamethasone; test: Comparison with dementia drugs in dexamethasone muscular atrophy model (Experimental Example 5); assay type: in vivo, ICR mice
# Description: For an experimental group in the present invention, oxiracetam having a structure of Formula 1 was purchased from Tokyo Chemical Industry (Japan; Product No. 00398, CAS RN:62613-82-5, purity: 96%) and used. Mirtazapine and olanzapine were purchased from Tokyo Chemical Industry (Japan, Product Nos. M2151, 00393, purity: 96%) and used.
# As experimental animals, 7-week-old male ICR mice were purchased and used. Until the day of the experiment, general feed (EEGJ30060: Cargill Agri Purina, Seongnam, Korea) and water were sufficiently supplied to the experimental animals, and the animals were acclimated for 1 week under an environment of a temperature of 23±2° C., a humidity of 55±10%, and a light-dark cycle of 12 hours-12 hours and used in the experiment.
# After the acclimation period for the experimental animals, to create a muscular atrophy model, the mice were randomly divided into groups of 7 animals, such as a control (vehicle, n=7), a dexamethasone-treated group (n=7), and a drug-administered group (n=7). The groups except for the control were intraperitoneally injected dexamethasone at a dose of 10 mg/kg from day 7 to day 21 for 14 days. In the case of the drug-administered group, 7 days before the intraperitoneal administration of dexamethasone, the drug was orally administered using a Zonde needle at a dose of 30 or 10 mg/kg/day once a day for 21 days. During the same period, the control was administered no drug, and 100 μL of normal saline was orally administered at a time. To the dexamethasone-treated group (dexamethasone excipient, CMC), instead of the drug, 100 μL of a 0.5% carboxymethylcellulose (CMC) solution was administered. This is to set the effect on the excipient as a blank.
# To measure grip strength, a grip strength test was performed. The maximum force presented when the forelimbs of an animal model of each group could no longer hold the rod by pulling the tail horizontally while holding the tail of the animal model and holding the rod of a device with both front paws was considered to be grip strength (N). Grip strength adaptation training was performed at least three times before drug administration. After measurement before drug administration (day 0) and on day 20 after drug administration began, grip strength variation (%) after drug administration began (day 20) with respect to that before drug administration (day 0) was calculated.
# The lean body mass of the gastrocnemius muscle (GS) and the lean body mass of the tibialis anterior (TA) for each group were measured every 7 days. Specifically, animal models of each group were anesthetized using 3% isoflurane, fixed to a photographing bed and then photographed. During photographing, the respiratory rates and body temperatures of the animal models were measured with an animal monitoring system (SA Instruments, USA).
# The whole body of the animal model was photographed through dual energy X-ray absorptiometry (DEXA) using iNSiGHT VET DXA (Osteosys, KR), and the lean body mass of each of the gastrocnemius muscle (GS) and the tibialis anterior (TA) was measured and calculated from the two-dimensional images of the gastrocnemius muscle (GS) and the tibialis anterior (TA) by a program using the region of interest (ROI).
# as §1
# C2C12 myotubes [3] = test: Myotube diameter in TNF-α muscular atrophy cell model (Experimental Example 7); assay type: cell-based, mouse; conditions: TNF-α 10 ng/ml 48 h with oxiracetam 10 μM or 0 μM; relative to non-treated control
# Description: A mouse-derived C2C12 cell line was provided from the American Type Culture Collection (ATCC, CRL-1772; Manassas, VA, USA) and cultured at 37° C. in 5% CO2. In the proliferation phase of the cells before differentiation, high concentration glucose Dulbecco's modified Eagle's medium (DMEM) containing 1% penicillin/streptomycin and 10% fetal bovine serum (FBS) medium were used, and in the differentiation induction, the FBS medium was replaced with a 2% horse serum (HS)-containing medium. The C2C12 myoblasts were seeded into a 96 well culture plate and a 6 well culture plate at 2×10^5/well and 5×10^3/well, respectively, and cultured at 37° C. in a CO2 incubator. When the confluency reached approximately 90%, the medium was replaced with 2% horse serum (HS)-containing DMEM to induce differentiation of myoblasts. After 5 days, the C2C12 myotubes that had differentiated were treated with 10 ng/ml TNF-α, which is an inflammatory factor, for 48 hours to cause myotube atrophy, thereby creating a muscular atrophy cell model, TNF-α-treated group (TNF-α). During the TNF-α treatment, 10 μM oxiracetam was treated to create an oxiracetam-treated group (Oxiracetam 10 μM), cells that were not treated during the same period were prepared as a control. Two days after TNF-α and oxiracetam treatment, each of the TNF-α-treated group (TNF-α), the oxiracetam-treated group (Oxiracetam 10 μM) and the control was treated with an ATP detection reagent at room temperature, and then luminescence was measured using a mitochondrial ToxGlo™ assay kit (Promega). In addition, the TNF-α-treated group (TNF-α), the oxiracetam-treated group (Oxiracetam 10 μM) and the control were photographed using an optical microscope and the diameter of a myotube cell in each group were measured and compared. Statistical processing was performed using GraphPad Prism (GraphPad Software Inc., San Diego, CA, USA).
# [4] = oxiracetam 30, mirtazapine 10, olanzapine 10 mg/kg/day oral 21 days + dexamethasone, DEXA every 7 days
molecule,measurement,setting,value
"COc1cccc2c1C(=O)c1c(O)c3c(c(O)c1C2=O)C[C@@](O)(C(=O)CO)C[C@@H]3O[C@H]1C[C@H](N)[C@H](O)[C@H](C)O1 [Doxorubicin, doxorubicin]",diameter of myotube,C2C12 myotubes [1],significantly decreased
CN1CCN2c3ncccc3Cc3ccccc3C2C1 (centres unmarked) [mirtazapine],change in grip strength,"[2]; oxiracetam 30, mirtazapine 10, olanzapine 10 mg/kg/day oral 21 days + dexamethasone 10 mg/kg i.p. day 7-21",reduced
same,lean body mass of the gastrocnemius muscle (GS),[2]; [4],not recovered but rather reduced
same,lean body mass of the tibialis anterior (TA),[2]; [4],not recovered but rather reduced
TNF-α,diameter of a myotube relative to control,C2C12 myotubes [3],greatly reduced to half the level of the control

# Reference: patent US20240050406A1, “COMPOSITION COMPRISING OXIRACETAM FOR PREVENTING OR TREATING MUSCULAR DISEASE” (KSB TUGEN INC., priority 2021, published 2024)
